Results from PubChem BioAssay (NCI).
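1) Cells in 96-well plates. 2) Compound, 48 h, 5 concentrations. 3) Linear interpolation between surrounding doses. 4) Unreached endpoint = highest concentration. TGI: total growth inhibition.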

Assays:
Assay in all cases: NCI-60 cell line screen, 48 h
EKVX NSCLC = tested on: EKVX NSCLC
LOX IMVI melanoma = tested on: LOX IMVI melanoma
SN12C renal = tested on: SN12C renal
TK-10 renal = tested on: TK-10 renal
NCI-H460 lung = tested on: NCI-H460 lung
XF 498 CNS = tested on: XF 498 CNS
SNB-75 CNS = tested on: SNB-75 CNS
SK-MEL-28 melanoma = tested on: SK-MEL-28 melanoma
SNB-19 CNS = tested on: SNB-19 CNS
KM20L2 colon = tested on: KM20L2 colon
SR leukemia = tested on: SR leukemia
A549 NSCLC = tested on: A549 NSCLC
IGROV1 ovarian = tested on: IGROV1 ovarian
UO-31 renal = tested on: UO-31 renal
OVCAR-5 ovarian = tested on: OVCAR-5 ovarian
OVCAR-4 ovarian = tested on: OVCAR-4 ovarian
HT29 colon = tested on: HT29 colon
RXF 393 renal = tested on: RXF 393 renal
NCI-H226 lung = tested on: NCI-H226 lung
SK-MEL-2 melanoma = tested on: SK-MEL-2 melanoma
SK-MEL-5 melanoma = tested on: SK-MEL-5 melanoma
HCT-116 colon = tested on: HCT-116 colon
786-0 renal = tested on: 786-0 renal
MOLT-4 leukemia = tested on: MOLT-4 leukemia
LXFL 529 NSCLC = tested on: LXFL 529 NSCLC
NCI-H23 lung = tested on: NCI-H23 lung
HOP-62 NSCLC = tested on: HOP-62 NSCLC
SW-620 colon = tested on: SW-620 colon
SF-295 CNS = tested on: SF-295 CNS
DLD-1 colon = tested on: DLD-1 colon
U251 CNS = tested on: U251 CNS
SF-268 CNS = tested on: SF-268 CNS
KM12 colon = tested on: KM12 colon
ACHN renal = tested on: ACHN renal
CCRF-CEM leukemia = tested on: CCRF-CEM leukemia
NCI-H522 lung = tested on: NCI-H522 lung
HCT-15 colon = tested on: HCT-15 colon
K-562 leukemia = tested on: K-562 leukemia
M19-MEL melanoma = tested on: M19-MEL melanoma
HL-60(TB) leukemia = tested on: HL-60(TB) leukemia
SNB-78 CNS = tested on: SNB-78 CNS
RXF-631 renal = tested on: RXF-631 renal
M14 melanoma = tested on: M14 melanoma
DMS 114 small cell lung = tested on: DMS 114 small cell lung
OVCAR-8 ovarian = tested on: OVCAR-8 ovarian
UACC-62 melanoma = tested on: UACC-62 melanoma
DMS 273 small cell lung = tested on: DMS 273 small cell lung
SF-539 CNS = tested on: SF-539 CNS
A498 renal = tested on: A498 renal
SK-OV-3 ovarian = tested on: SK-OV-3 ovarian
OVCAR-3 ovarian = tested on: OVCAR-3 ovarian
MALME-3M melanoma = tested on: MALME-3M melanoma
HOP-92 NSCLC = tested on: HOP-92 NSCLC
HCC-2998 colon = tested on: HCC-2998 colon
UACC-257 melanoma = tested on: UACC-257 melanoma
COLO 205 colon = tested on: COLO 205 colon
RPMI-8226 leukemia = tested on: RPMI-8226 leukemia

Cc1cc(C)nc(NS(=O)(=O)c2ccc(Nc3c4ccccc4nc4c(C(=O)NCCN(C)C)cccc34)cc2)n1
TGI (EKVX NSCLC): 23.6 µM
TGI (LOX IMVI melanoma): 11.7 µM
TGI (SN12C renal): 17.3 µM
TGI (TK-10 renal): 27.7 µM
TGI (NCI-H460 lung): 10.9 µM
TGI (XF 498 CNS): 26.8 µM
TGI (SNB-75 CNS): 24.4 µM
TGI (SK-MEL-28 melanoma): 20.4 µM
TGI (SNB-19 CNS): 10.7 µM
TGI (KM20L2 colon): 20.2 µM
TGI (SR leukemia): 43.7 µM
TGI (A549 NSCLC): 16.1 µM
TGI (IGROV1 ovarian): 16.4 µM
TGI (UO-31 renal): 5.89 µM
TGI (OVCAR-5 ovarian): 29.4 µM
TGI (OVCAR-4 ovarian): 11.9 µM
TGI (HT29 colon): 14.3 µM
TGI (RXF 393 renal): 20.2 µM
TGI (NCI-H226 lung): 6.21 µM
TGI (SK-MEL-2 melanoma): 19.1 µM
TGI (SK-MEL-5 melanoma): 18.8 µM
TGI (HCT-116 colon): 15.5 µM
TGI (786-0 renal): 25.2 µM
TGI (MOLT-4 leukemia): 1.61 µM
TGI (LXFL 529 NSCLC): 20 µM
TGI (NCI-H23 lung): 21.5 µM
TGI (HOP-62 NSCLC): 14.5 µM
TGI (SW-620 colon): 15.2 µM
TGI (SF-295 CNS): 14.9 µM
TGI (DLD-1 colon): 21.7 µM
TGI (U251 CNS): 18.1 µM
TGI (SF-268 CNS): 20.1 µM
TGI (KM12 colon): 18.4 µM
TGI (ACHN renal): 15.9 µM
TGI (CCRF-CEM leukemia): 22.6 µM
TGI (NCI-H522 lung): 4.28 µM
TGI (HCT-15 colon): 19.3 µM
TGI (K-562 leukemia): 17.8 µM
TGI (M19-MEL melanoma): 14.9 µM
TGI (HL-60(TB) leukemia): 4.82 µM
TGI (SNB-78 CNS): 45.2 µM
TGI (RXF-631 renal): 18 µM
TGI (M14 melanoma): 20.4 µM
TGI (DMS 114 small cell lung): 17.5 µM
TGI (OVCAR-8 ovarian): 20.5 µM
TGI (UACC-62 melanoma): 14.6 µM
TGI (DMS 273 small cell lung): 11.2 µM
TGI (SF-539 CNS): 14.9 µM

CCCc1cc(OC(=O)c2c(O)cc(OC)cc2CCC)cc(O)c1C(=O)O
TGI (A498 renal): 98.8 µM
TGI (EKVX NSCLC): 86.8 µM
TGI (LOX IMVI melanoma): 61.7 µM
TGI (TK-10 renal): > 100 µM
TGI (NCI-H460 lung): 76.6 µM
TGI (XF 498 CNS): 74.4 µM
TGI (SNB-75 CNS): 73.4 µM
TGI (SK-OV-3 ovarian): 68.4 µM
TGI (SK-MEL-28 melanoma): 70.6 µM
TGI (SNB-19 CNS): > 100 µM
TGI (OVCAR-3 ovarian): 61.2 µM
TGI (KM20L2 colon): > 100 µM
TGI (A549 NSCLC): > 100 µM
TGI (IGROV1 ovarian): > 100 µM
TGI (UO-31 renal): 35.9 µM
TGI (MALME-3M melanoma): 42.3 µM
TGI (OVCAR-5 ovarian): > 100 µM
TGI (HT29 colon): > 100 µM
TGI (RXF 393 renal): 53.2 µM
TGI (SK-MEL-2 melanoma): 47.4 µM
TGI (HCT-116 colon): 32.2 µM
TGI (786-0 renal): > 100 µM
TGI (MOLT-4 leukemia): 84.2 µM
TGI (LXFL 529 NSCLC): 62.9 µM
TGI (NCI-H23 lung): 42.8 µM
TGI (HOP-92 NSCLC): 39 µM
TGI (HOP-62 NSCLC): 35.6 µM
TGI (SW-620 colon): > 100 µM
TGI (DLD-1 colon): > 100 µM
TGI (U251 CNS): 68.4 µM
TGI (HCC-2998 colon): 66.2 µM
TGI (KM12 colon): > 100 µM
TGI (ACHN renal): 80.2 µM
TGI (CCRF-CEM leukemia): 95.4 µM
TGI (NCI-H522 lung): 43.9 µM
TGI (K-562 leukemia): > 100 µM
TGI (M19-MEL melanoma): > 100 µM
TGI (HL-60(TB) leukemia): 52.7 µM
TGI (UACC-257 melanoma): 56.2 µM
TGI (SNB-78 CNS): 64.1 µM
TGI (RXF-631 renal): 63.8 µM
TGI (M14 melanoma): 73.7 µM
TGI (COLO 205 colon): 79.2 µM
TGI (DMS 114 small cell lung): 56 µM
TGI (OVCAR-8 ovarian): > 100 µM
TGI (UACC-62 melanoma): 78.1 µM
TGI (RPMI-8226 leukemia): 60.7 µM
TGI (DMS 273 small cell lung): 95.7 µM
TGI (SF-539 CNS): 34.7 µM
